The text below walks through data of patent US20090093517A1, “BIS1,2,3,4-TETRAHYDROISOQUINOLINE DERIVATIVES AND THEIR USES AS PHARMACEUTICALS” (UNIVERSITE DE LIEGE, priority 2006, published 2009).

This assay addresses apamin-sensitive sites of the SK channels. Description: Competition binding between 125I-apamin and bis-tetrahydroisoquinoline derivatives on rat cortical synaptosomes. The following applies: for Ki: separated stereoisomers, rat cortical apamin sensitive sites, 125I-apamin; for % of 125I-apamin displaced at 10 μM: 10 μM compound, ±10 pM 125I-apamin, rat cortical synaptosomes, 1 h at 0° C. As for the experimental part: These experiments are used to evaluate the potency of the bis-tetrahydroisoquinoline derivatives to interact with the apamin-sensitive sites of the SK channels, the selected target for which a blockade is expected to be useful in the treatment of Alzheimer's disease, Parkinson's disease, schizophrenia, cognitive dysfunction, or depression. Two reference compounds are also tested for comparison
Rats (male Wistar, ±250 g) were killed by decapitation and the brains were quickly removed and kept on ice during dissection. Crude cortex was dispersed in 0.32 M sucrose by using a Pottero homogenizer. After a first centrifugation at 1500×g for 10 min, the supernatant was centrifuged at 25000×g for 10 min. The resulting pellet was dispersed in 5 mL 0.32 M sucrose to be aliquoted. Protein concentration was determined by the method of Hartree with bovine serum albumin as a standard.^36
The buffer consisted of a 10 mM Tris-HCl (pH 7.5) solution containing 5.4 mM KCl and 0.1% bovine serum albumin. The radioligand was ^125I-apamin (Perkin-Elmer, Specific activity 81.4 TBq mmol^−1). Glass fibre filters (Whatman GF/C) used in these experiments were coated for 1 h in 0.5% polyethylenimine and then washed with 2.5 mL of the ice-cold buffer just before use. Binding experiments were always terminated as follows. Aliquots were filtered under reduced pressure through Whatman filters. Filters were rapidly washed twice with 2.5 mL of buffer. The radioactivity remaining on the filter was evaluated with a Packard Tri-Carb 1600TR liquid scintillation analyser with an efficacy of 69%. ^125I-apamin binding to the filters was also estimated in the absence of synaptosomes. This binding was also substracted from the total binding. Curve fitting was carried out using GraphPad Prism.
Saturation Binding Experiments—Synaptosomes (0.2 mg of protein/mL) were incubated with increasing concentrations of ^125I-apamin (25 μL) with 975 μL of incubation buffer for 1 h at 0° C. Samples were then filtered on Whatman GF/C filter and the radioactivity was measured as described above. Non specific binding was determined in parallel experiments in the presence of an excess of unlabeled apamin (0.1 μM) and subtracted from the total binding to obtain the specific binding.
Competition Experiments between ^125I-apamin and Bis-tetrahydroisoquinoline derivatives—Synaptosomes (0.2 mg of protein/mL) were incubated for 1 h at 0° C. with ±10 pM of ^125I-apamin (25 μL) and nine concentrations of bis-tetrahydroisoquinoline derivatives (10^−4 to 10^−7 M). Non specific binding was determined in the presence of an excess of unlabeled apamin (0.1 μM). Samples were then filtered on Whatman filter and the radioactivity was measured as described above.

Usually Ki stands for the dissociation constant of the complex between target and ligand, obtained from inhibition or displacement.

Structures can show the parent of a compound that is named as a salt.

As to `COc1cc2c(c(OC)c1OC)[C@@H](CCC[C@H]1c3c(cc(OC)c(OC)c3OC)CCN1C)N(C)CC2` [Compound 4g MESO, 1,3-bis[1-(6,7,8-trimethoxy-2-methyl-1,2,3,4-tetrahydroisoquinolyl)]-propane hydrochloride], the Ki amounted to 1.67 ± 0.077 µM. `COc1cc2c(cc1OC)C(CCCCC1c3cc(OC)c(OC)cc3CCN1C)N(C)CC2` (stereo not drawn) [Compound 4e MESO, 1,4-bis[1-(6,7-dimethoxy-2-methyl-1,2,3,4-tetrahydroisoquinolyl)]-butane hydrochloride] returned a Ki (listed as 4e MESO, hydrochloride) of 1.07 ± 0.124 µM. Consider `COc1cc2c(cc1OC)C(CCCCC1c3cc(OC)c(OC)cc3CCN1C)N(C)CC2.Cl` (stereo not shown) [Compound 4e E1, 1,4-bis[1-(6,7-dimethoxy-2-methyl-1,2,3,4-tetrahydroisoquinolyl)]-butane hydrochloride], for which the “Ki / potential to interact with apamin-sensitive sites compared with NML” value (comparison in words with N-Methyl-Laudanosine) is “Ki superior to NML”. Moreover, the Ki (listed as 4e E1, hydrochloride) was 0.588 ± 0.072 µM. In the case of “o-bis[1-(6,7-dimethoxy-2-methyl-1,2,3,4-tetrahydroisoquinolyl)]-xylene hydrochloride [Compound 4m]”, the “% of 125I-apamin displaced at 10 μM” value stood at 62%. Consider “p-bis[1-(6,7,8-trimethoxy-2-methyl-1,2,3,4-tetrahydroisoquinolyl)]-xylene [Compound 4r]”, for which the “% of 125I-apamin displaced at 10 μM” value was found to be 51%. With `COc1ccc(C[C@H]2c3cc(OC)c(OC)cc3CC[N+]2(C)C)cc1OC` [NML, N-methyl-laudanosine, reference compound], the “% of 125I-apamin displaced at 10 μM” value is 54%. Where the note is “listed as 4g E2, hydrochloride”, `COc1cc2c(c(OC)c1OC)C(CCCC1c3c(cc(OC)c(OC)c3OC)CCN1C)N(C)CC2` (stereo not shown) [Compound 4g E2, 1,3-bis[1-(6,7,8-trimethoxy-2-methyl-1,2,3,4-tetrahydroisoquinolyl)]-propane hydrochloride] displayed a Ki of 1.1 ± 0.103 µM. In the case of `COc1cc2c(cc1OC)C(Cc1ccc(CC3c4cc(OC)c(OC)cc4CCN3C)cc1)N(C)CC2` (stereo not shown) [Compound 4o, p-bis[1-(6,7-dimethoxy-2-methyl-1,2,3,4-tetrahydroisoquinolyl)]-xylene], the “% of 125I-apamin displaced at 10 μM” value stood at 90%.

Molecule `COc1cc2c(c(OC)c1OC)C(CCCC1c3c(cc(OC)c(OC)c3OC)CCN1C)N(C)CC2` (stereo not shown) [Compound 4g E1, 1,3-bis[1-(6,7,8-trimethoxy-2-methyl-1,2,3,4-tetrahydroisoquinolyl)]-propane hydrochloride] came in with a Ki (listed as 4g E1, hydrochloride) of 1.74 ± 0.195 µM.
